Data from patent US10610514B2, “Composition comprising compound inhibiting interactions of MBD2 and P66α for anti-metastasis and prevention and treatment of cancer disease” (Industry-University Cooperation Foundation Hanyang …, priority 2016, dated 2020).
Like-named read-outs stand apart in the source and are kept apart here. Values belong to the molecule of their own block, whether it stands above or below them.

What was measured:
MEL cells = assay: Western blotting of cell cycle- and apoptosis-associated marker proteins in MEL cells; assay type: cell-based, murine
Excerpt: In addition, as a western blotting result to show the change in the expression of cell cycle-associated marker proteins according to the concentration and time of the treated compound of Formula 1, it was confirmed that all activities of cyclin/CDK controlling the checkpoints of the cell cycle were decreased. Therefore, referring to FIG. 13, it was seen that overall progression of the cell cycle was inhibited by the treatment with the compound of Formula 1, and aneuploidy and cell death were induced.

[1] = tested on: solid tumor cell lines (HCT116, BEAS2B, 293T, Hep3B, MCF7, MDA-MB-231, MCF10A, U373MG); assay: MTT assay cell viability, solid tumor cell lines; assay type: cell-based; conditions: average
Procedure: (§1) Lymphoid leukemia cell lines (Raji, Molt4, IM9, Jurkat, CCRF-CEM, and Daudi), leukemia cell lines (KCL22, MEL, THP-1, HL60, HEL, U937, KG-1, and K562), and solid tumor cell lines (HCT116 colorectal cancer cell line, BEAS2B lung epithelial cell line, 293T fetus kidney epithelial cell line, Hep3B liver cancer cell line, MCF7 and MDA-MB-231 breast cancer cell lines, MCF10A breast epithelial cell line, and U373MG brain tumor cell line) were treated with a compound at different concentrations (0, 1, 10, 100, 1,000, and 10,000 μM), cultured for 4 days, and subjected to MTT assay every 24 hours to measure cell viability. 48 hours after the treatment with the compound, a morphological change of the cells was observed, and cell images were taken. IC50 values caused by the treatment with each compound were calculated using the Graph Prism Pad 6 program.

[2] = tested on: leukemia cell lines (KCL22, MEL, THP-1, HL60, HEL, U937, KG-1, and K562); assay: MTT assay cell viability, leukemia cell lines; assay type: cell-based
Procedure: as §1

[3] = tested on: MDA-MB-231, HCT116, MEL and HL60 cell lines; assay: In vitro cancer cell migration and invasion, Trans-well insert; assay type: cell-based; conditions: 10 μM, in comparison with controls, all cell lines
Procedure: Accordingly, to confirm whether EMT and metastasis are inhibited by the treatment with the compounds of Formulas 1 and 2, in vitro cancer cell migration and invasion abilities were analyzed, and the result is shown in FIGS. 3A and 3B below.

[4] = tested on: HCT116 and MDA-MB-231 cell lines; assay: Western blotting of EMT-associated marker proteins; assay type: cell-based; conditions: 10 μM, 48 hours
Excerpt: Therefore, the compounds of Formulas 1 and 2 according to the present invention may be excellent leading materials in the development of therapeutic agents for metastasis.

MEL cell line [5] = assay: Leukemia cell line-implanted animal model (MEL cell line intravenously injected into immunodeficient mice); assay type: in vivo
Excerpt: The result is shown in FIGS. 9A, 9B, 9C, 9D, 9E, 9F, 9G, 9H, 9I and 9J below.
However, a white blood cell level was reduced due to the treatment with the compound at a slightly higher concentration, but the histological characteristics of the major organs as well as the overall hematological characteristics were normal (FIGS. 9D and 9E).
Meanwhile, to confirm whether the compound of Formula 1 can treat tumors generated in the animal models, the MEL cell line was intravenously injected, after 7 days, the compound of Formula 1 was intravenously injected five times at intervals of three days, and then, on the 21th day, the mice were sacrificed to be subjected to analysis by the above-described method (FIG. 9F).

[6] = tested on: target gene expression of the CP2c transcription factor complex; assay: Luc reporter assay, GATA1 enhancer, 293T cells transduced with CBP complex protein overexpression vectors; assay type: cell-based
Procedure: Therefore, Luc reporter assay was carried out to analyze whether a decrease in the target gene expression of the CP2c transcription factor complex due to MBD2 or p66α overexpression is restored by the treatment with a compound for inhibiting the interaction between the MBD2 and p66α selected in the previous step (FIGS. 2A and 2B). Here, as a CP2c transcription factor target sequence that controls Luc reporter gene expression, a GATA1 enhancer was used, and 293T cells were transduced with various combinations of CBP complex protein overexpression vectors and then used for analysis.

[7] = tested on: lymphoid leukemia cell lines (Raji, Molt4, IM9, Jurkat, CCRF-CEM, and Daudi); assay: MTT assay cell viability, lymphoid leukemia cell lines; assay type: cell-based; conditions: average
Procedure: as §1

MEL cell line [8] = assay: Cell cycle analysis by FACS and karyotype analysis of MEL cells; assay type: cell-based, murine
[9] = tested on: various cancer cell lines; assay: MTT assay cell viability, all cancer cell lines; assay type: cell-based
Procedure: as §1

[10] = 16.5 μM and 40 μM, western blotting over time
[11] = dosing started 7 days after MEL injection, day 21

Compound: NCC(=O)NC[C@H]1COc2ccccc2O1 [Formula 1]
apoptosis-associated caspases (MEL cells; [10]): activated | expression of the apoptosis inhibition marker (MEL cells; [10]): decreased | expression of the apoptosis promotion marker (MEL cells; [10]): increased | activities of cyclin/CDK controlling the checkpoints of the cell cycle (MEL cells; western blotting, by concentration and time): decreased | IC50 [1]: 1780 µM | IC50 ([2]; average, read-out: IC50 average): 50 µM | IC50 ([2]; range over cell lines, read-out: IC50 values): 6 to 218 µM | effect on migration and invasion abilities [3]: significant inhibitory effect | expression of epithelial cell marker proteins (β-catenin, E-cadherin) [4]: decreased | expression of mesenchymal cell marker proteins (Snail, slug, N-cadherin) [4]: significantly decreased | side effects in normal tissue/blood (MEL cell line [5]; MEL-implanted mice): no side effects | histological characteristics of the major organs and overall hematological characteristics (MEL cell line [5]; dosing from MEL injection, day 16): normal | histological characteristics of the major organs and overall hematological characteristics (MEL cell line [5]; [11]): normal | tumor cells in the blood, spleen and liver (MEL cell line [5]; [11]): no tumor cells | splenomegaly caused by the MEL cells (MEL cell line [5]; dosing started 7 days after MEL injection, i.v. five times at intervals of three days, day 21, concentration-dependent): disappeared | splenomegaly caused by the MEL cells (MEL cell line [5]; i.v. 12.2, 24.4, 48.8 μg/Kg five times at intervals of three days from MEL injection, day 16, concentration-dependent): disappeared | tumor cells in the blood, spleen and liver (MEL cell line [5]; i.v. five times at intervals of three days from MEL injection, day 16): no tumor cells | white blood cell level (MEL cell line [5]; slightly higher concentration, day 16): reduced | restoration of the inhibition of target gene expression by MBD2 overexpression [6]: did not restore | restoration of the inhibition of target gene expression by p66α overexpression [6]: restored | IC50 [7]: 213 µM | G0/G1 group (MEL cell line [8]; FACS): reduction | G2/M group (MEL cell line [8]; FACS): increase | aneuploidy cell group (MEL cell line [8]; FACS): significant increases | subG1 (cell group dying by apoptosis) (MEL cell line [8]; FACS): significant increases | aneuploidy (MEL cell line [8]; FACS after synchronization at G1/S by thymidine double block): remarkably induced | chromosomes (karyotype analysis) (MEL cell line [8]; karyotype analysis): abnormally increased

IC50 values (in words) ([9]; uniform in all cancer cell lines): slightly higher IC50 values
Compound: CC(C)(C)OC(=O)N1CC[C@@H](CC(=O)CN)C1 [Formula 2]
effect on migration and invasion abilities [3]: significant inhibitory effect | expression of epithelial cell marker proteins (β-catenin, E-cadherin) [4]: decreased | expression of mesenchymal cell marker proteins (Snail, slug, N-cadherin) [4]: significantly decreased | restoration of the inhibition of target gene expression by MBD2 overexpression [6]: restored | restoration of the inhibition of target gene expression by p66α overexpression [6]: did not restore | growth and cell death of cell lines ([9]; various cancer cell lines): effects of inhibiting the growth and inducing cell death
